Where two headings read alike, the source gives them in different places.
Key:
in vitro = details: human
A/WSN/33 [1] = assay: microbe, parasite or virus in culture; type: cell-based, influenza virus; details: unidentified influenza virus, WSN, A549, 24 h; for IC50: read-out: WSN IC50, A549 cells, A/WSN/33 MOI 0.01, 24 h post infection, NP-positive cells; for IC90: read-out: WSN IC90, A549 cells, A/WSN/33 MOI 0.01, 24 h post infection, NP-positive cells
A549 cells [2] = details: human
[3] = test system: bulk cellular poly(A) RNA; assay: RNA-FISH of poly(A) RNA in uninfected cells; type: cell-based, Human; details: 2.5 μM
A549 cells [4] = assay: MTT cytotoxicity assay
[5] = test system: viral proteins (M1, M2, NA, HA); type: cell-based, A/WSN33
A/Vietnam/1203/04 (H5N1) = type: cell-based, influenza A virus
A/Panama/99 (H3N2) = type: cell-based, influenza A virus
[6] = test system: primary human bronchial epithelial cells (HBEC); assay: Cell viability of primary human bronchial epithelial cells (CellTiter-Glo); type: cell-based; details: 24 h
Method: FIG. 38 depicts compound 2 inhibiting influenza virus replication in primary human bronchial epithelial cells at non-toxic concentrations. […] (B) Cell viability was monitored at 24 h after treatment with 0.1% DMSO or compound 2 at the depicted concentrations using CellTiter-Glo. Three independent experiments were performed.

M1 to M2 splicing = type: cell-based, influenza virus (WSN); details: 1 μM or 2.5 μM, WSN MOI 2 for 8 h
A/WSN/33 (H1N1) = type: cell-based, influenza A virus
A/WSN/33 [7] = type: cell-based, influenza virus
cellular RNAs = assay: Cell fractionation and RNAseq of poly(A) RNA; type: cell-based, human; details: 2.5 μM, 9 hours, cutoff 1.5-fold
NS1 to NS2 splicing = assay: qPCR of relative ratio of NS2 to NS1 mRNAs; type: cell-based, influenza virus (WSN); details: 1 μM or 2.5 μM, WSN MOI 2 for 8 h
NS mRNA = assay: smRNA-FISH of NS mRNA in WSN-infected cells; type: cell-based, influenza virus (WSN); details: 2.5 μM, WSN MOI 2 for 8 h
viral M mRNA = assay: smRNA-FISH of M mRNA in WSN-infected cells; type: cell-based, influenza virus (WSN); details: 2.5 μM, WSN MOI 2 for 8 h
HA mRNA = assay: smRNA-FISH of HA mRNA in WSN-infected cells; type: cell-based, influenza virus (WSN); details: 2.5 μM, WSN MOI 2 for 8 h
cellular ATP levels = assay: Cellular ATP levels (CellTiter-Glo); type: cell-based; details: 2.5 μM, 24 h
Method: FIG. 30 depicts cellular ATP levels measured in cells treated with 0.1% DMSO or 2.5 μM of compound 2 at 24 h. Four independent experiments were performed and each contained 6 technical replicates.
ATP was measured by luminescence using the CellTiter-Glo kit (Promega) according to the manufacturer's instructions.

cellular GAPDH mRNA = assay: smRNA-FISH of GAPDH mRNA in uninfected cells; type: cell-based, Human; details: 2.5 μM

## Cn1c(SCC(=O)Nc2ccc(Br)cn2)nc2ccccc21 [Compound 1]
In vitro
  CC50: > 50 µM
A/WSN/33 [1]
  IC50: 1.89 µM
  IC90: 12.1 µM
A549 cells [2]
  24 h MTT CC10: 1.417 µM

## O=C(CSc1nc2ccccc2[nH]1)Nc1ccc(Br)cn1 [Compound 2, 2-((1H-benzo[d]imidazol-2-yl)thio)-N-(5-bromopyridin-2-yl)acetamide]
In vitro; A549 cells
  CC50 at 24 h: > 50 µM
[3]
  poly(A) RNA nuclear to cytoplasmic ratio: slightly decreased
  total levels of bulk cellular poly(A) RNA: did not affect
A549 cells [4]; 24 h, concurrent with immunostaining
  24 h MTT CC10: 5.839 µM
A549 cells [4]; MTT, 24 h or 48 h
  cell viability at concentrations inhibiting replication: did not significantly alter
[5]
  levels of the viral M1 and M2 proteins as well as NA and HA proteins: decrease
A/Vietnam/1203/04 (H5N1); A549 cells, MOI 0.01, 24 h
  viral replication (viral titer): inhibited
A/Vietnam/1203/04 (H5N1); A/Vietnam/1203/04, plaque assay vs NP assay
  IC50 in plaque assay relative to NP assay (less): ~2 fold
A/Panama/99 (H3N2)
  IC50 in plaque assay relative to NP assay (less): ~2 fold
  viral replication (viral titer): inhibited
[6]
  cell viability of HBEC: non-toxic
M1 to M2 splicing
  M1 to M2 splicing (relative ratio of M2 to M1 mRNAs): No effect
A/WSN/33 (H1N1)
  IC50 in plaque assay relative to NP assay (less): ~2 fold
  viral replication (viral titer): inhibited
A/WSN/33 [1]
  IC50: 3.18 µM
  IC90: 16.9 µM
A/WSN/33 [7]
  viral replication in primary human bronchial epithelial cells: inhibited
Cellular RNAs
  mRNAs down-regulated: 829 mRNAs
  mRNAs more cytoplasmic compared to control cells: 98 mRNAs
  mRNAs preferentially retained in the nucleus: 96 mRNAs
  mRNAs up-regulated: 103 mRNAs
  mRNAs with altered nuclear to cytoplasmic distribution: 194 mRNAs
NS1 to NS2 splicing
  NS1 to NS2 splicing: slightly inhibited
NS mRNA
  nuclear retention of NS mRNA: weak nuclear retention
  total levels of the NS mRNA: not altered
Viral M mRNA
  nuclear export of viral M mRNA: robustly inhibited
  total M mRNA fluorescence intensity: did not alter
HA mRNA
  nuclear export of HA mRNA: robustly inhibited
Cellular ATP levels
  cellular ATP levels as a surrogate for cytotoxicity: no significant change
Cellular GAPDH mRNA
  GAPDH mRNA nuclear to cytoplasmic distribution: not affected
  total levels of cellular GAPDH mRNA: slightly decreased

## Cc1cccc2[nH]c(SCC(=O)Nc3ccc(Br)cn3)nc12 [Compound 3]
In vitro
  CC50: > 50 µM
A/WSN/33 [1]
  IC50: 4.94 µM
  IC90: 10 µM
A549 cells [2]
  24 h MTT CC10: 0.683 µM

## O=C(CSc1nc2ccccc2[nH]1)Nc1ccc(Br)cc1 [Compound 4]
In vitro
  CC50: > 50 µM
A/WSN/33 [1]
  IC50: > 50 µM
  IC90: > 50 µM
A549 cells [2]
  24 h MTT CC10: >50 µM

## NC(=O)CSc1nc2ccccc2[nH]1 [Compound 5]
In vitro
  CC50: > 50 µM
A/WSN/33 [1]
  IC50: > 50 µM
  IC90: > 50 µM
A549 cells [2]
  24 h MTT CC10: >50 µM

## O=C(CS(=O)(=O)c1nc2ccccc2[nH]1)Nc1ccc(Br)cn1 [Compound 6]
In vitro
  CC50: > 50 µM
A/WSN/33 [1]
  IC50: 22.6 µM
  IC90: > 50 µM
A549 cells [2]
  24 h MTT CC10: 23.361 µM

## O=C(C[S+]([O-])c1nc2ccccc2[nH]1)Nc1ccc(Br)cn1 (centres unmarked) [Compound 7]
In vitro
  CC50: > 50 µM
A/WSN/33 [1]
  IC50: 11.9 µM
  IC90: > 50 µM
A549 cells [2]
  24 h MTT CC10: 31.074 µM

## O=C(CSc1nc2ccccc2[nH]1)NCc1ccccn1 [Compound 8]
In vitro
  CC50: > 50 µM
A/WSN/33 [1]
  IC50: > 50 µM
  IC90: > 50 µM
A549 cells [2]
  24 h MTT CC10: >50 µM

## O=C(CSc1nc2ccccc2[nH]1)NCc1ccccc1 [Compound 9]
In vitro
  CC50: > 50 µM
A/WSN/33 [1]
  IC50: > 50 µM
  IC90: > 50 µM
A549 cells [2]
  24 h MTT CC10: >50 µM

## O=C(CSc1nc2ccccc2[nH]1)NC1CCCCC1 [Compound 10]
In vitro
  CC50: > 50 µM
A/WSN/33 [1]
  IC50: > 50 µM
  IC90: > 50 µM
A549 cells [2]
  24 h MTT CC10: >50 µM

## O=C(CSc1nc2ccccc2[nH]1)Nc1ccccn1 [Compound 11]
In vitro
  CC50: > 50 µM
A/WSN/33 [1]
  IC50: > 50 µM
  IC90: > 50 µM
A549 cells [2]
  24 h MTT CC10: >50 µM

## CC(Sc1nc2ccccc2[nH]1)C(=O)Nc1ccc(Br)cn1 (centres unmarked) [Compound 12]
In vitro
  CC50: > 50 µM
A/WSN/33 [1]
  IC50: > 50 µM
  IC90: > 50 µM
A549 cells [2]
  24 h MTT CC10: >50 µM

## COc1ccc(C2C(CC(C)C(=O)Nc3ccc(Br)cn3)=Cc3ccccc32)cc1 (centres unmarked) [Compound 14]
A/WSN/33 [1]
  IC50: > 50 µM
  IC90: > 50 µM
A549 cells [2]
  24 h MTT CC10: 15.941 µM
  CC50: > 50 µM

## Cc1ccc(NC(=O)CCc2nc3ccccc3o2)nc1 [Compound 15]
A/WSN/33 [1]
  IC50: 30.7 µM
  IC90: > 50 µM
A549 cells [2]
  24 h MTT CC10: >50 µM
  CC50: > 50 µM
